Values of other authors as cited in patent US8236927B2, “Stabilizer molecule-depleted albumin solution” (Albutec GmbH, priority 2005, dated 2012).

Molecular target: T1, binding site II (diazepam binding site) of the albumin (Homo sapiens, UniProt P02768)
T1 construct: commercial albumin, stabilized with 5.2 mmole of octanoate and 5.2 mmol of N-acetyl tryptophanate per mmol albumin; purchased
Conditions: N-acetyl tryptophan added stepwise up to a molar ratio of 1:1; reduced from 100%

T1 sequence (P02768 25-609): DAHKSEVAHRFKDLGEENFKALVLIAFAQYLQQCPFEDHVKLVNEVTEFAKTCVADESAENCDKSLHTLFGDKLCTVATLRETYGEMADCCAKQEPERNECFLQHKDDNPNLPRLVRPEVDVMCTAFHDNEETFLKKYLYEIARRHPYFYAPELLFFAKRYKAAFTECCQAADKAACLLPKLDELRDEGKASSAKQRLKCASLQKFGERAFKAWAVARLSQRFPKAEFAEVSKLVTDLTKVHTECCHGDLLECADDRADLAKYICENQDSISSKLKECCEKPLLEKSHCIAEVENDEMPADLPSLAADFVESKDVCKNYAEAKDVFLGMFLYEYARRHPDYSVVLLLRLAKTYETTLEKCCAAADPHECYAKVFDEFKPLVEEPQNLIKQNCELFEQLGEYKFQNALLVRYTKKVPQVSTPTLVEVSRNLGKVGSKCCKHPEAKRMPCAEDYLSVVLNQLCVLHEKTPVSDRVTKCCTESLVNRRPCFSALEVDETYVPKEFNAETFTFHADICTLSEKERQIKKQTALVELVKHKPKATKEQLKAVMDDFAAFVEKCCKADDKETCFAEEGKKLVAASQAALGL

For `CC(=O)N[C@@H](Cc1c[nH]c2ccccc12)C(=O)O` [N-acetyl tryptophan], the “binding capacity for dansylsarcosin of ligand-free albumin” value is given as “about 60%”.
